Measurements from patent US20110191867A1.

Experiments:
[1] = tested on: serum antibodies of test subjects
[2] = tested on: serum antibodies of test subjects; details: serum of 8 persons

Substance	comparison of the cyclic and linear peptide, reactivity with sera [1]	reaction with serum of test subject [1]	reactivity with sera of test subjects [1]	immune responses of serum antibodies against the peptides [2]
Biotin-aminocaproyl-RPKVRDQ [Peptide 3C]	more reactive with low signals with other subjects	higher reaction	Strong responses were observed from the serum of test subjects S5B	
Biotin-aminocaproyl-SRPRVRNIP [Peptide 2B]		high reaction	much weaker reactions	especially effective in binding with certain antibodies
